{
  "source": "patent US20130253048A1",
  "about": "“Pharmaceutical Composition for Promoting Osteogenesis Containing Axial-equatorial Aryl-oriented Furofuran-type Lignan, and Pharmaceutical Preparation, Functional Food Product, and Health Food Product Comprising Composition” (ERINA CO., INC., priority 2010, published 2013)",
  "test_system": "ovariectomized mouse (OVX mouse)",
  "assay": "Bone formation in ovariectomized mouse (OVX mouse), dosing after bone resorption induction period, femur pQCT",
  "assay_type": "in vivo",
  "conditions": "for Bone strength (polar coordinates torsion strength): compared to Control OVX group; for Bone density of cancellous bone, relative value / Bone density of cortical bone, relative value / Bone density of the whole bones, relative value: 5M Sham = 100; for Bone density of cancellous bone / Bone density of cortical bone / Bone thickness of cortical bone / Cross section area of cortical bone / Perimeter of cortical bone adventitia / Perimeter of cortical bone lining membrane / Bone density of the whole bones: OVX mice, 3 months dosing after 2-month induction; for Bone density of the whole bones: right femur, pQCT",
  "experimental": "Four-week-old female Slc; ddy mice (Japan SLC, Inc.) were purchased, and they were divided into 8 groups without acclimate keeping (6 mice per group). They were anesthetized by using 50 mg/kg of pentobarbital to be ovariectomized (it is referred to as “OVX” herein below) or to have Sham operation (it is referred to as “Sham” herein below) under the anesthesia which is given by intraperitoneal administration of 50 mg/kg of Somnopentyl (pentobarbital sodium).\nFrom the second day of the ovariectomy (or Sham operation), each group was maintained under the condition of 12 hour light/dark cycle, 23±3 degree centigrade as the room temperature, and humidity 55±5% for 2 months as the bone resorption induction period. The animal bedding was exchanged twice a week and all fresh bedding was used at all times. CRF-1 (Oriental Yeast Co., Ltd.) as the feed and deionized water as drinking water were freely given.\nAfter two month period from the test start, the bone resorption induction period, the test substance were given to each group at the amount shown in the following Table 7 for 3 month.\nNinety % of MeOH fraction (Shin-i) obtained in Example 1 and Fargesin (may refer to “Far” thereafter) were respectively dissolved into TD solution at the concentration shown in Table 7, and then they were administrated per os.\nHuman PTH (1-34) (herein below, it is sometimes referred to as “hPTH (1-34)”) were dissolved in distilled water at the concentration of 80 μg/kg/day, and it was administrated subcutaneously.\nAfter 3 month from the administration start, the mice belonging to all of the groups were weighed. They were anesthetized by using diethylether, and were collected their blood from their hearts, and then they were died. Then, organs such as the uterus, the white adipose tissue (WAT), the brown adipose tissue (BAT), the liver, the spleen, and both left and right lower extremities were removed. The left and right lower extremities were separated into the femurs and the tibias, and they were stored in 70% EtOH under the room temperature.\nThe muscles were removed from the obtained femur (right), and then its bone density and the like were measured by using pQCT employed in Example 1 under the following conditions.\nRecognition of contour (CONTMODE): 2 (auto search of ROI)\nRecognition method of cancellous bone: Surface & Area\nRation of cancellous bone area to all of the cross section areas: 35%\nCORTMODE used in CORTBD: 1* * Voxels not larger than the standard value for distinguishing the cortical bone from the cancellous bone (threshold: threshold) were omitted. Each tissue weight was also measured.\nTH value used in CORTBD: 690\nAmong the all data of cancellous bone density obtained from pQCT, both of the highest and the lowest data were deleted to obtain the Median. As to the other parameters were treated as the same as this, the graph was made with N=6. Statistical analysis was performed by using the Dennett's two-sided t test.",
  "note": "Marks after values point to notes of the source that are not given here.",
  "data": [
    {"smiles": "COc1ccc([C@@H]2OC[C@H]3[C@@H]2CO[C@@H]3c2ccc3c(c2)OCO3)cc1OC", "note": "[fargesin, Fargesin]", "values": [
      {"measurement": "Bone strength (polar coordinates torsion strength)", "setting": "2 mg administration group p.o.", "result": "significantly increased"},
      {"measurement": "Bone strength (polar coordinates torsion strength)", "setting": "40 mg administration group p.o.", "result": "significantly increased"},
      {"measurement": "Bone density of cancellous bone, relative value", "setting": "Far 2: 2 mg/kg/day p.o.", "result": 54.9},
      {"measurement": "Bone density of cortical bone, relative value", "setting": "Far 2: 2 mg/kg/day p.o.", "result": 92.7},
      {"measurement": "Bone density of the whole bones, relative value", "setting": "Far 2: 2 mg/kg/day p.o.", "result": 81.4},
      {"measurement": "Bone density of cancellous bone, relative value", "setting": "Far 20: 20 mg/kg/day p.o.", "result": 58.5},
      {"measurement": "Bone density of cortical bone, relative value", "setting": "Far 20: 20 mg/kg/day p.o.", "result": 92.9},
      {"measurement": "Bone density of the whole bones, relative value", "setting": "Far 20: 20 mg/kg/day p.o.", "result": 83.1},
      {"measurement": "Bone density of cancellous bone, relative value", "setting": "Far 40: 40 mg/kg/day p.o.", "result": 79.2},
      {"measurement": "Bone density of cortical bone, relative value", "setting": "Far 40: 40 mg/kg/day p.o.", "result": 90.4},
      {"measurement": "Bone density of the whole bones, relative value", "setting": "Far 40: 40 mg/kg/day p.o.", "result": 85.7},
      {"measurement": "Bone density of cancellous bone", "setting": "Far 2: 2 mg/kg/day p.o.", "result": "64.10 ± 25.48", "unit": "mg/cm^2"},
      {"measurement": "Bone density of cortical bone", "setting": "Far 2: 2 mg/kg/day p.o.", "result": "911.65 ± 30.15", "unit": "mg/cm^2"},
      {"measurement": "Bone thickness of cortical bone", "setting": "Far 2: 2 mg/kg/day p.o.", "result": "0.20 ± 0.03", "unit": "mm"},
      {"measurement": "Cross section area of cortical bone", "setting": "Far 2: 2 mg/kg/day p.o.", "result": "1.46 ± 0.23", "unit": "mm^2"},
      {"measurement": "Perimeter of cortical bone adventitia", "setting": "Far 2: 2 mg/kg/day p.o.", "result": "8.02 ± 0.26", "unit": "mm"},
      {"measurement": "Perimeter of cortical bone lining membrane", "setting": "Far 2: 2 mg/kg/day p.o.", "result": "6.79 ± 0.19", "unit": "mm"},
      {"measurement": "Bone density of the whole bones", "setting": "Far 2: 2 mg/kg/day p.o.", "result": "427.83 ± 36.00", "unit": "mg/cm^2"},
      {"measurement": "Bone density of cancellous bone", "setting": "Far 20: 20 mg/kg/day p.o.", "result": "68.22 ± 21.67", "unit": "mg/cm^2"},
      {"measurement": "Bone density of cortical bone", "setting": "Far 20: 20 mg/kg/day p.o.", "result": "914.57 ± 43.90", "unit": "mg/cm^2"},
      {"measurement": "Bone thickness of cortical bone", "setting": "Far 20: 20 mg/kg/day p.o.", "result": "0.20 ± 0.03", "unit": "mm"},
      {"measurement": "Cross section area of cortical bone", "setting": "Far 20: 20 mg/kg/day p.o.", "result": "1.48 ± 0.18", "unit": "mm^2"},
      {"measurement": "Perimeter of cortical bone adventitia", "setting": "Far 20: 20 mg/kg/day p.o.", "result": "8.04 ± 0.55", "unit": "mm"},
      {"measurement": "Perimeter of cortical bone lining membrane", "setting": "Far 20: 20 mg/kg/day p.o.", "result": "6.78 ± 0.68", "unit": "mm"},
      {"measurement": "Bone density of the whole bones", "setting": "Far 20: 20 mg/kg/day p.o.", "result": "437.00 ± 49.48", "unit": "mg/cm^2"},
      {"measurement": "Bone density of cancellous bone", "setting": "Far 40: 40 mg/kg/day p.o.", "result": "92.37 ± 41.29", "unit": "mg/cm^2"},
      {"measurement": "Bone density of cortical bone", "setting": "Far 40: 40 mg/kg/day p.o.", "result": "889.97 ± 23.31", "unit": "mg/cm^2"},
      {"measurement": "Bone thickness of cortical bone", "setting": "Far 40: 40 mg/kg/day p.o.", "result": "0.21 ± 0.02* mm"},
      {"measurement": "Cross section area of cortical bone", "setting": "Far 40: 40 mg/kg/day p.o.", "result": "1.56 ± 0.19* mm^2"},
      {"measurement": "Perimeter of cortical bone adventitia", "setting": "Far 40: 40 mg/kg/day p.o.", "result": "8.14 ± 0.39", "unit": "mm"},
      {"measurement": "Perimeter of cortical bone lining membrane", "setting": "Far 40: 40 mg/kg/day p.o.", "result": "6.83 ± 0.38", "unit": "mm"},
      {"measurement": "Bone density of the whole bones", "setting": "Far 40: 40 mg/kg/day p.o.", "result": "450.57 ± 33.72", "unit": "mg/cm^2"}
    ]}
  ]
}
